Like-named read-outs stand apart in the source and are kept apart here.
Columns and labels:
Assay type in all cases: cell-based
TRPML2 = target: T1, TRPML2 (Homo sapiens, UniProt Q8IZK6); experiment: Fluorescent TRPML2 assay (performed as for TRPML1, substituting the TRPML2 subtype)
T1 construct: expressed in transfected cells
T1 sequence (Q8IZK6 1-566): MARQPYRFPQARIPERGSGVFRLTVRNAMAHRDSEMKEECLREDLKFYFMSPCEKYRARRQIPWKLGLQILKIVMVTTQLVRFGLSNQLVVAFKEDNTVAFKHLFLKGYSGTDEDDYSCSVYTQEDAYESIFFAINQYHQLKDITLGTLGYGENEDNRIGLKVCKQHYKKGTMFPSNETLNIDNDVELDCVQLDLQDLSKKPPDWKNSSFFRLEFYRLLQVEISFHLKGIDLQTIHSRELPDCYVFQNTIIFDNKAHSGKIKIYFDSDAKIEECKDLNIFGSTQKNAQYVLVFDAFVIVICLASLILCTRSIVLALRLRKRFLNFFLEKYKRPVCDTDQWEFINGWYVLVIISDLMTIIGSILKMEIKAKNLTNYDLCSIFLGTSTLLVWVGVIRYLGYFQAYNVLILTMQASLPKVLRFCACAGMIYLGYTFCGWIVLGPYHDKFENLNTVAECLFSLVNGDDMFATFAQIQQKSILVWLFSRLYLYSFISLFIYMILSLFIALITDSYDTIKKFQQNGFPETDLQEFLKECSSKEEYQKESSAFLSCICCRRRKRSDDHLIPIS
Outline: (§1)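 HEK-293 Trex, dox-induced (0.5 ug/mL), mutated for surface expression. Fluo4-AM 1 micromolar load ~60 min, dark; buffer modified Ringer's, 10 mM Ca. Cpds 20 micromolar–6 nanomolar final, half-log, n=3. Read ex 480/em 540; % activity vs controls; EC50 nonlinear fit.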

TRPML3 = target: T2, TRPML3 (Homo sapiens, UniProt Q8TDD5); experiment: Fluorescent TRPML3 assay (performed as for TRPML1, substituting the TRPML3 subtype)
T2 construct: expressed in transfected cells
T2 sequence (Q8TDD5 1-553): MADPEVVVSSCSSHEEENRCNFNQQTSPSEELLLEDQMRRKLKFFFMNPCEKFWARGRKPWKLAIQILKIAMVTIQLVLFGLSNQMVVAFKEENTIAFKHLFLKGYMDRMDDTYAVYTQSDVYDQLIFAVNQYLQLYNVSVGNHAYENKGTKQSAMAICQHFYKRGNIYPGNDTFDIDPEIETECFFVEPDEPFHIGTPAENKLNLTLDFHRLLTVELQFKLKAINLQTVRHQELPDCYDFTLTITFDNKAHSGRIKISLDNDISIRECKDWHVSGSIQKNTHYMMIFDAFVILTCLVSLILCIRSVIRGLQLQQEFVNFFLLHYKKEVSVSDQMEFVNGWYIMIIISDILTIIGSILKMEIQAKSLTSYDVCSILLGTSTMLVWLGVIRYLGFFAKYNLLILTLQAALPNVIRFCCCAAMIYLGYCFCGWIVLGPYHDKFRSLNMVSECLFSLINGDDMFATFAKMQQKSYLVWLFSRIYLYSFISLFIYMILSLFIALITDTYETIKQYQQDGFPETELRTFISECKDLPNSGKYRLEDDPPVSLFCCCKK
Outline: as §1

TRPML1 = TRPML1 (Homo sapiens, UniProt Q9GZU1); experiment: Fluorescent TRPML1 assay (Fluo4-AM calcium fluorescence in doxycycline-induced HEK-293 Trex cells)
TRPML1, sequence (Q9GZU1 whole entry L15A/L16A/L577A/L578A, form open): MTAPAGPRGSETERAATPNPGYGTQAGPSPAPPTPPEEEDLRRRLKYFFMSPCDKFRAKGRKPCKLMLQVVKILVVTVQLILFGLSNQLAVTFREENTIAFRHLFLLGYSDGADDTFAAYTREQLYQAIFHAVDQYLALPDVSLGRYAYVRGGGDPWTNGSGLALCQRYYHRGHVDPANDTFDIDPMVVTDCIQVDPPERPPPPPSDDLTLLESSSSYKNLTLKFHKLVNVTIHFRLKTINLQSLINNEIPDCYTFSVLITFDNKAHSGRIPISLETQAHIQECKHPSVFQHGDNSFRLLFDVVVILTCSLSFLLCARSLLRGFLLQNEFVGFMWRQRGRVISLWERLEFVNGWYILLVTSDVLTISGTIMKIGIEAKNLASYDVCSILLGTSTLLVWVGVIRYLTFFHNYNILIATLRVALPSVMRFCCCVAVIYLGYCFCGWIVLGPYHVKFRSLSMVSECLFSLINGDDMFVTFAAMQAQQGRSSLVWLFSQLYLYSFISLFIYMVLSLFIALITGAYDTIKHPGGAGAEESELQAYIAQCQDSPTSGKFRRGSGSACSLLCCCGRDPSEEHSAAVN
Outline: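 HEK-293 Trex cells stably carrying human TRPML1 (surface-trafficking mutant) were induced overnight with 0.5 ug/mL doxycycline, loaded with 1 micromolar Fluo4-AM, and suspended in Ringer's with 10 mM calcium. Compounds at 20 micromolar to 6 nanomolar final, half-log steps, triplicate; fluorescence 480/540 nm gave percent activity versus controls and EC50 by non-linear regression.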

SMILES	EC50 (TRPML2; fluorescent calcium assay)	EC50 (TRPML3; fluorescent calcium assay)	EC50 (TRPML1; fluorescent calcium assay)	EC50 (TRPML2)	EC50 (TRPML3)	EC50 (TRPML1)
C[C@@H]1CN(c2ncnc3c2c(C2CC2)cn3-c2cccc(F)c2F)CCN1C(=O)OC(C)(C)C [Compound 205, tert-butyl (R)-4-(5-cyclopropyl-7-(2,3-difluorophenyl)-7H-pyrrolo[2,3-d]pyrimidin-4-yl)-2-methylpiperazine-1-carboxylate]	500 to 2000 nM	100 to 500 nM	100 to 500 nM			
C[C@@H]1CN(c2ncnc3c2c(N2CCCC2)cn3-c2cc(F)cc(F)c2)CCN1C(=O)OC(C)(C)C [Compound 245, tert-butyl (R)-4-(7-(3,5-difluorophenyl)-5-(pyrrolidin-1-yl)-7H-pyrrolo[2,3-d]pyrimidin-4-yl)-2-methylpiperazine-1-carboxylate]	500 to 2000 nM	100 to 500 nM	100 to 500 nM			
C[C@H]1CN(C(=O)OC(C)(C)C)CCN1c1ncnc2c1c(N1CCOCC1)cn2-c1cccc(C#N)c1 [Compound 324, tert-butyl (S)-4-(7-(3-cyanophenyl)-5-morpholino-7H-pyrrolo[2,3-d]pyrimidin-4-yl)-3-methylpiperazine-1-carboxylate]	500 to 2000 nM	< 100 nM	< 100 nM			
C[C@H]1CN(C(=O)OC(C)(C)C)CCN1c1ncnc2c1c(C1CCOCC1)cn2-c1cc(F)cc(F)c1 [Compound 468, tert-butyl (S)-4-(7-(3,5-difluorophenyl)-5-(tetrahydro-2H-pyran-4-yl)-7H-pyrrolo[2,3-d]pyrimidin-4-yl)-3-methylpiperazine-1-carboxylate]	> 2000 nM	100 to 500 nM	100 to 500 nM			
C[C@H]1CN(C(=O)OC(C)(C)C)CCN1c1ncnc2c1c(C1CC1)cn2-c1cccc(C#N)c1 [Compound 200, tert-butyl (S)-4-(7-(3-cyanophenyl)-5-cyclopropyl-7H-pyrrolo[2,3-d]pyrimidin-4-yl)-3-methylpiperazine-1-carboxylate]	100 to 500 nM	< 100 nM	< 100 nM			
CCOC(=O)N1CCN(c2ncnc3c2c(-c2ccccn2)cn3-c2ccc(F)c(Cl)c2)[C@@H](C)C1 [Compound 155, ethyl (S)-4-(7-(3-chloro-4-fluorophenyl)-5-(pyridin-2-yl)-7H-pyrrolo[2,3-d]pyrimidin-4-yl)-3-methylpiperazine-1-carboxylate]	500 to 2000 nM	100 to 500 nM	100 to 500 nM			
C[C@@H]1CN(c2ncnc3c2c(-c2cnccn2)cn3-c2cc(F)cc(F)c2)CCN1C(=O)OC(C)(C)C [Compound 233, tert-butyl (R)-4-(7-(3,5-difluorophenyl)-5-(pyrazin-2-yl)-7H-pyrrolo[2,3-d]pyrimidin-4-yl)-2-methylpiperazine-1-carboxylate]	500 to 2000 nM	100 to 500 nM	500 to 2000 nM			
C[C@H]1CN(c2ncnc3c2c(N2CCCC2)cn3-c2cccc(Cl)c2)CCN1C(=O)OC(C)(C)C [Compound 194, tert-Butyl (S)-4-(7-(3-chlorophenyl)-5-(pyrrolidin-1-yl)-7H-pyrrolo[2,3-d]pyrimidin-4-yl)-2-methylpiperazine-1-carboxylate]	100 to 500 nM	100 to 500 nM	100 to 500 nM			
C[C@H]1CN(C(=O)OC(C)(C)C)CCN1c1ncnc2c1c(C1CC1)cn2-c1cc(C#N)cc(OC(F)(F)F)c1 [Compound 303, tert-butyl (S)-4-(7-(3-cyano-5-(trifluoromethoxy)phenyl)-5-cyclopropyl-7H-pyrrolo[2,3-d]pyrimidin-4-yl)-3-methylpiperazine-1-carboxylate]	500 to 2000 nM	100 to 500 nM	100 to 500 nM			
C[C@H]1CN(C(=O)OC(C)(C)C)CCN1c1ncnc2c1c(C1CCOCC1)nn2-c1ccccc1 [Compound 261, tert-butyl (S)-3-methyl-4-(1-phenyl-3-(tetrahydro-2H-pyran-4-yl)-1H-pyrazolo[3,4-d]pyrimidin-4-yl)piperazine-1-carboxylate]	> 2000 nM	500 to 2000 nM	500 to 2000 nM			

Results, then the compound that gave them:

EC50 (TRPML2; fluorescent calcium assay)	EC50 (TRPML3; fluorescent calcium assay)	EC50 (TRPML1; fluorescent calcium assay)	EC50 (TRPML2)	EC50 (TRPML3)	EC50 (TRPML1)	SMILES
100 to 500 nM	< 100 nM	< 100 nM				C[C@@H]1CN(c2ncnc3c2c(N(C)C)cn3-c2cccc(Cl)c2)CCN1C(=O)OC(C)(C)C [Compound 430, tert-butyl (R)-4-(7-(3-chlorophenyl)-5-(dimethylamino)-7H-pyrrolo[2,3-d]pyrimidin-4-yl)-2-methylpiperazine-1-carboxylate]
500 to 2000 nM	100 to 500 nM	500 to 2000 nM				Cc1c(Cl)cccc1-n1cc(-c2cnccn2)c2c(N3CCN(C(=O)OC(C)(C)C)CC3C)ncnc21 (stereo not drawn) [Compound 162, tert-butyl 4-(7-(3-chloro-2-methylphenyl)-5-(pyrazin-2-yl)-7H-pyrrolo[2,3-d]pyrimidin-4-yl)-3-methylpiperazine-1-carboxylate]
500 to 2000 nM	< 100 nM	< 100 nM				C[C@@H]1CN(c2ncnc3c2c(C2CC2)cn3-c2cc(F)cc(F)c2)[C@@H](C)CN1C(=O)OC(C)(C)C [Compound 232, tert-butyl (2R,5S)-4-(5-cyclopropyl-7-(3,5-difluorophenyl)-7H-pyrrolo[2,3-d]pyrimidin-4-yl)-2,5-dimethylpiperazine-1-carboxylate]
			< 100 nM	< 100 nM	< 100 nM	C[C@H]1CN(C(=O)OC(C)(C)C)CCN1c1ncnc2c1c(-c1ccccc1F)cn2-c1cc(C(F)(F)F)ccn1 [Compound 651, tert-butyl (S)-4-(5-(2-fluorophenyl)-7-(4-(trifluoromethyl)pyridin-2-yl)-7H-pyrrolo[2,3-d]pyrimidin-4-yl)-3-methylpiperazine-1-carboxylate]
			< 100 nM	< 100 nM	< 100 nM	C[C@@H]1CN(c2ncnc3c2c(N2CCC2)cn3-c2cc(F)cc(F)c2)[C@@H](C)CN1C(=O)OC(C)(C)C [Compound 497, tert-butyl (2R,5S)-4-(5-(azetidin-1-yl)-7-(3,5-difluorophenyl)-7H-pyrrolo[2,3-d]pyrimidin-4-yl)-2,5-dimethylpiperazine-1-carboxylate]
500 to 2000 nM	< 100 nM	< 100 nM				CCOC(=O)N1C[C@H](C)N(c2ncnc3c2c(-c2ccccc2F)cn3-c2cc(C)ccn2)C[C@H]1C [Compound 144, ethyl (2R,5S)-4-(5-(2-fluorophenyl)-7-(4-methylpyridin-2-yl)-7H-pyrrolo[2,3-d]pyrimidin-4-yl)-2,5-dimethylpiperazine-1-carboxylate]
			100 to 500 nM	< 100 nM	< 100 nM	Cc1cn(-c2cc(F)cc(Cl)c2)c2ncnc(N3CCN(C(=O)OC(C)(C)C)C[C@@H]3C)c12 [Compound 693, tert-butyl (S)-4-(7-(3-chloro-5-fluorophenyl)-5-methyl-7H-pyrrolo[2,3-d]pyrimidin-4-yl)-3-methylpiperazine-1-carboxylate]
			> 2000 nM	100 to 500 nM	100 to 500 nM	Cc1cn(-c2ccccn2)c2ncnc(N3C[C@@H](C)N(C(=O)OC(C)(C)C)C[C@@H]3C)c12 [Compound 673, tert-butyl (2R,5S)-2,5-dimethyl-4-(5-methyl-7-(pyridin-2-yl)-7H-pyrrolo[2,3-d]pyrimidin-4-yl)piperazine-1-carboxylate]
100 to 500 nM	< 100 nM	100 to 500 nM				CC(C)(C)OC(=O)N1CCN(c2ncnc3c2c(C2CC2)cn3-c2cc(C#N)ccn2)[C@@H]2C[C@@H]21 (single isomer, unassigned) [Compound 408]
			< 100 nM	< 100 nM	< 100 nM	C[C@@H]1CN(c2ncnc3c2c(-c2ccccc2F)cn3-c2cc(C(F)(F)F)ccn2)[C@@H](C)CN1C(=O)OC(C)(C)C [Compound 649, tert-butyl (2R,5S)-4-(5-(2-fluorophenyl)-7-(4-(trifluoromethyl)pyridin-2-yl)-7H-pyrrolo[2,3-d]pyrimidin-4-yl)-2,5-dimethylpiperazine-1-carboxylate]

Reference: US20250136606A1, “MODULATORS OF TRPML, THEIR COMPOSITIONS AND METHODS OF USE” (Caraway Therapeutics, Inc., priority 2021, published 2025)
